Assay results published in patent publication US20250296937A1, “CYCLIC BISBENZYL TETRAHYDROISOQUINOLINE COMPOUND, AND PREPARATION METHOD THEREFOR AND USE THEREOF” (Shanghai Institute of Materia Medica, Chinesse Academy of …, priority 2021, published 2025).
Entries after “also recorded” stand apart in the source; their conditions may differ.

Tests used:
[1] = tested on: delta mutant strain of SARS-CoV-2; format: cell-based; details: for EC50: read-out: Inhibition against viral replication of delta mutant strain EC50
[2] = tested on: South African mutant strain of SARS-CoV-2; format: cell-based; details: for EC50: read-out: Inhibition against viral replication of South African mutant strain EC50

CCCCNC(=O)Oc1ccc2cc1Oc1ccc(cc1)C[C@H]1c3c(cc(OC)c(OC)c3Oc3cc4c(cc3OC)CCN(C)[C@@H]4C2)CCN1C [Compound 2]
inhibition against the delta strain [1]: strong inhibition; also recorded: significantly inhibited
EC50 [1]: 300 nM

CNC(=O)c1ccc2cc1Oc1ccc(cc1)C[C@H]1c3c(cc(OC)c(OC)c3Oc3cc4c(cc3OC)CCN(C)[C@@H]4C2)CCN1C [Compound 5]
inhibition against the South African strain [2]: strong inhibition; also recorded: significantly inhibited
EC50 [2]: 2700 nM

COc1cc2c3cc1Oc1c(OC)c(OC)cc4c1[C@H](Cc1ccc(cc1)Oc1cc(ccc1C(=O)NC1CC1)C[C@H]3N(C)CC2)N(C)CC4 [Compound 6]
inhibition against the South African strain [2]: strong inhibition; also recorded: significantly inhibited
EC50 [2]: 2200 nM

COc1cc2c3cc1Oc1c(OC)c(OC)cc4c1[C@H](Cc1ccc(cc1)Oc1cc(ccc1C(N)=O)C[C@H]3N(C)CC2)N(C)CC4 [Compound 4]
inhibition against the delta strain [1]: strong inhibition; also recorded: significantly inhibited
EC50 [1]: 1500 nM
